Drawing on patent US11708348B2, “Protease inhibitors for treatment of coronavirus infections” (The Scripps Research Institute, priority 2021, dated 2023), this text covers EC50 for 23 molecules.

The term EC50 denotes the concentration needed to bring the measured effect to its halfway point.

The first assay concerns SARS-CoV-2 strain USA-WA1/2020. Put plainly: microbe, parasite or virus in culture. Conditions: Severe acute respiratory syndrome coronavirus 2, HeLa-ACE2, 24 h, HeLa-ACE2 cells, SARS-CoV-2 infection, 24 h; cells given as a bound; read-out: EC50, uM (Hela). It counts as cell-based.
For `CC(C)C[C@H](NC(=O)OC1CCCC1)C(=O)N[C@@H](C[C@@H]1CCNC1=O)C(=O)COc1c(F)c(F)cc(F)c1F` [Compound 21, cyclopentyl ((S)-4-methyl-1-oxo-1-(((S)-3-oxo-1-((S)-2-oxopyrrolidin-3-yl)-4-(2,3,5,6-tetrafluorophenoxy)butan-2-yl)amino)pentan-2-yl)carbamate], the half-maximal effective concentration (EC50) is > 1 µM.
Still for that read-out and setting: for `O=C(N[C@@H](C[C@@H]1CCNC1=O)C(=O)COc1c(F)c(F)cc(F)c1F)C1CCN(C(=O)C2CCCC2)CC1` [Compound 27, l-(cyclopentane-carbonyl)-N-((S)-3-oxo-1-((S)-2-oxopyrrolidin-3-yl)-4-(2,3,5,6-tetrafluorophenoxy)butan-2-yl)piperidine-4-carboxamide] the value was > 1 µM.

The same assay, now with this note: Severe acute respiratory syndrome coronavirus 2, HeLa-ACE2, 24 h, HeLa-ACE2 cells, SARS-CoV-2 infection, 24 h; class symbols; read-out: EC50, uM (Hela).
For `CC(C)C[C@H](NC(=O)C(=O)Nc1ccccc1)C(=O)N[C@@H](C[C@@H]1CCNC1=O)C(=O)COc1c(F)c(F)cc(F)c1F` [Compound 10, N1-((S)-4-methyl-1-oxo-1-(((S)-3-oxo-1-((S)-2-oxopyrrolidin-3-yl)-4-(2,3,5,6-tetrafluorophenoxy)butan-2-yl)amino)pentan-2-yl)-N2-phenyloxalamide], the EC50 is < 0.05 µM.
As for `CC(C)CC[C@H](NC(=O)c1cc2cc(F)ccc2[nH]1)C(=O)N[C@@H](C[C@@H]1CCNC1=O)C(=O)COc1c(F)c(F)cc(F)c1F` [Compound 11, 5-fluoro-N-((S)-5-methyl-1-oxo-1-(((S)-3-oxo-1-((S)-2-oxopyrrolidin-3-yl)-4-(2,3,5,6-tetrafluorophenoxy)butan-2-yl)amino)hexan-2-yl)-1H-indole-2-carboxamide], the half-maximal effective concentration (EC50) was 0.2 to 0.5 µM.
Same read-out and setting: the figure for `O=C(N[C@@H](CCc1ccccc1)C(=O)N[C@@H](C[C@@H]1CCNC1=O)C(=O)COc1c(F)c(F)cc(F)c1F)c1cc2cc(F)ccc2[nH]1` [Compound 12, 5-fluoro-N-((S)-1-oxo-1-(((S)-3-oxo-1-((S)-2-oxopyrrolidin-3-yl)-4-(2,3,5,6-tetrafluorophenoxy)butan-2-yl)amino)-4-phenylbutan-2-yl)-1H-indole-2-carboxamide] is 0.5 to 1 µM; for `CC(C)(C)C[C@H](NC(=O)c1cc2cc(F)ccc2[nH]1)C(=O)N[C@@H](C[C@@H]1CCNC1=O)C(=O)COc1c(F)c(F)cc(F)c1F` [Compound 13, N-((S)-4,4-dimethyl-1-oxo-1-(((S)-3-oxo-1-((S)-2-oxopyrrolidin-3-yl)-4-(2,3,5,6-tetrafluorophenoxy)butan-2-yl)amino)pentan-2-yl)-5-fluoro-1H-indole-2-carboxamide] it is 0.5 to 1 µM.
As for `O=C(N[C@@H](Cc1ccccc1)C(=O)N[C@@H](C[C@@H]1CCNC1=O)C(=O)COc1c(F)c(F)cc(F)c1F)c1cc2cc(F)ccc2[nH]1` [Compound 14, 5-fluoro-N-((S)-1-oxo-1-(((S)-3-oxo-1-((S)-2-oxopyrrolidin-3-yl)-4-(2,3,5,6-tetrafluorophenoxy)butan-2-yl)amino)-3-phenylpropan-2-yl)-1H-indole-2-carboxamide], the concentration for a half-maximal effect (EC50) is 0.05 to 0.2 µM.
Still for that read-out and setting: for `CC(C)C[C@H](NC(=O)OCc1ccccc1)C(=O)N[C@@H](C[C@@H]1CCNC1=O)C(=O)COc1c(F)c(F)cc(F)c1F` [Compound 15, benzyl ((S)-4-methyl-1-oxo-1-(((S)-3-oxo-1-((S)-2-oxopyrrolidin-3-yl)-4-(2,3,5,6-tetrafluorophenoxy)butan-2-yl)amino)pentan-2-yl)carbamate] the value was 0.2 to 0.5 µM; for `CC(C)C[C@H](NC(=O)c1cc2cc(F)ccc2[nH]1)C(=O)N[C@@H](C[C@@H]1CCNC1=O)C(=O)COc1c(F)c(F)cc(F)c1F` [Compound 16, 5-fluoro-N-((S)-4-methyl-1-oxo-1-(((S)-3-oxo-1-((S)-2-oxopyrrolidin-3-yl)-4-(2,3,5,6-tetrafluorophenoxy)butan-2-yl)amino)pentan-2-yl)-1H-indole-2-carboxamide], 0.05 to 0.2 µM; for `O=C(N[C@@H](Cc1ccc(C(F)(F)F)cc1)C(=O)N[C@@H](C[C@@H]1CCNC1=O)C(=O)COc1c(F)c(F)cc(F)c1F)c1cc2cc(F)ccc2[nH]1` [Compound 17, 5-fluoro-N-((S)-1-oxo-1-(((S)-3-oxo-1-((S)-2-oxopyrrolidin-3-yl)-4-(2,3,5,6-tetrafluorophenoxy)butan-2-yl)amino)-3-(4-(tri-fluoromethyl)phenyl)-propan-2-yl)-1H-indole-2-carboxamide], 0.2 to 0.5 µM.
The same measure, in the same setting: for `CC(C)(F)C[C@H](NC(=O)c1cc2cc(F)ccc2[nH]1)C(=O)N[C@@H](C[C@@H]1CCNC1=O)C(=O)COc1c(F)c(F)cc(F)c1F` [Compound 18, 5-fluoro-N-((S)-4-fluoro-4-methyl-1-oxo-1-(((S)-3-oxo-1-((S)-2-oxopyrrolidin-3-yl)-4-(2,3,5,6-tetrafluorophenoxy)butan-2-yl)amino)pentan-2-yl)-1H-indole-2-carboxamide] the value was 0.5 to 1 µM.
On to `COc1ccc(C[C@H](NC(=O)c2cc3cc(F)ccc3[nH]2)C(=O)N[C@@H](CC2CCNC2=O)C(=O)COc2c(F)c(F)cc(F)c2F)cc1` (stereo partly drawn) [Compound 19, 5-fluoro-N-((2S)-3-(4-methoxyphenyl)-1-oxo-1-(((2S)-3-oxo-1-(2-oxopyrrolidin-3-yl)-4-(2,3,5,6-tetrafluorophenoxy)butan-2-yl)amino)propan-2-yl)-1H-indole-2-carboxamide], for which the EC50 fell in the range of 0.2 to 0.5 µM.
`CC(C)C[C@H](NC(=O)c1ccc2ccccc2n1)C(=O)N[C@@H](C[C@@H]1CCNC1=O)C(=O)COc1c(F)c(F)cc(F)c1F` [Compound 20, N-((S)-4-methyl-1-oxo-1-(((S)-3-oxo-1-((S)-2-oxopyrrolidin-3-yl)-4-(2,3,5,6-tetrafluorophenoxy)butan-2-yl)amino)pentan-2-yl)quinoline-2-carboxamide]: the EC50 is 0.2 to 0.5 µM.
Same read-out and setting: for `CC(C)C[C@H](NC(=O)OCc1cccc(Cl)c1)C(=O)N[C@@H](C[C@@H]1CCNC1=O)C(=O)COc1c(F)c(F)cc(F)c1F` [Compound 22, 3-chlorobenzyl ((S)-4-methyl-1-oxo-1-(((S)-3-oxo-1-((S)-2-oxopyrrolidin-3-yl)-4-(2,3,5,6-tetrafluorophenoxy)butan-2-yl)amino)pentan-2-yl)carbamate] the value was 0.2 to 0.5 µM; for `CC(C)C[C@H](NC(=O)OCc1ccc(F)cc1)C(=O)N[C@@H](C[C@@H]1CCNC1=O)C(=O)COc1c(F)c(F)cc(F)c1F` [Compound 23, 4-fluorobenzyl ((S)-4-methyl-1-oxo-1-(((S)-3-oxo-1-((S)-2-oxopyrrolidin-3-yl)-4-(2,3,5,6-tetra-fluorophenoxy)butan-2-yl)amino)pentan-2-yl)carbamate], 0.2 to 0.5 µM; for `CC(C)C[C@H](NC(=O)c1ccc2c(c1)OCO2)C(=O)N[C@@H](C[C@@H]1CCNC1=O)C(=O)COc1c(F)c(F)cc(F)c1F` [Compound 24, N-((S)-4-methyl-1-oxo-1-(((S)-3-oxo-1-((S)-2-oxopyrrolidin-3-yl)-4-(2,3,5,6-tetrafluorophenoxy)butan-2-yl)amino)pentan-2-yl)benzo[d][l,3]dioxole-5-carboxamide], 0.2 to 0.5 µM.
With `CC(C)C[C@H](NC(=O)C1CCN(C(=O)C2CCCC2)CC1)C(=O)N[C@@H](C[C@@H]1CCNC1=O)C(=O)COc1c(F)c(F)cc(F)c1F` [Compound 25, l-(cyclopentane-carbonyl)-N-((S)-4-methyl-1-oxo-1-(((S)-3-oxo-1-((S)-2-oxopyrrolidin-3-yl)-4-(2,3,5,6-tetrafluorophenoxy)butan-2-yl)amino)pentan-2-yl)piperidine-4-carboxamide], the EC50 was 0.5 to 1 µM.
The same measure, in the same setting: the figure for `CC(C)C[C@H](NC(=O)[C@H]1CCCO1)C(=O)N[C@@H](C[C@@H]1CCNC1=O)C(=O)COc1c(F)c(F)cc(F)c1F` [Compound 26, (R)-N-((S)-4-methyl-1-oxo-1-(((S)-3-oxo-1-((S)-2-oxopyrrolidin-3-yl)-4-(2,3,5,6-tetrafluorophenoxy)butan-2-yl)amino)pentan-2-yl)tetrahydrofuran-2-carboxamide] is 0.2 to 0.5 µM; for `CC(C)C[C@H](NC(=O)c1cc2cnccc2[nH]1)C(=O)N[C@@H](C[C@@H]1CCNC1=O)C(=O)COc1c(F)c(F)cc(F)c1F` [Compound 29, N-((S)-4-methyl-1-oxo-1-(((S)-3-oxo-1-((S)-2-oxopyrrolidin-3-yl)-4-(2,3,5,6-tetrafluorophenoxy)butan-2-yl)amino)pentan-2-yl)-1H-pyrrolo[3,2-c]pyridine-2-carboxamide] it is < 0.05 µM; for `O=C(Nc1ccccc1)C(=O)N[C@@H](CC1CC1)C(=O)N[C@@H](C[C@@H]1CCNC1=O)C(=O)COc1c(F)c(F)cc(F)c1F` [Compound 30, N1-((S)-3-cyclopropyl-1-oxo-1-(((S)-3-oxo-1-((S)-2-oxopyrrolidin-3-yl)-4-(2,3,5,6-tetrafluorophenoxy)butan-2-yl)amino)propan-2-yl)-N2-phenyloxalamide] it is < 0.05 µM.
On the same count and under the same terms, for `O=C(Nc1ccccc1)C(=O)N[C@@H](CC1CCC1)C(=O)N[C@@H](C[C@@H]1CCNC1=O)C(=O)COc1c(F)c(F)cc(F)c1F` [Compound 31, N1-((S)-3-cyclobutyl-1-oxo-1-(((S)-3-oxo-1-((S)-2-oxopyrrolidin-3-yl)-4-(2,3,5,6-tetra-fluorophenoxy)butan-2-yl)amino)propan-2-yl)-N2-phenyloxalamide] the value was < 0.05 µM.
As to `CC(C)C[C@H](NC(=O)C(=O)Nc1ccccc1C(F)(F)F)C(=O)N[C@@H](C[C@@H]1CCNC1=O)C(=O)COc1c(F)c(F)cc(F)c1F` [Compound 32], the EC50 was < 0.05 µM.
On the same count and under the same terms, for `CC(C)C[C@H](NC(=O)C(=O)Nc1ccccc1C(C)(C)C)C(=O)N[C@@H](C[C@@H]1CCNC1=O)C(=O)COc1c(F)c(F)cc(F)c1F` [Compound 33, N1-(2-(tert-butyl)phenyl)-N2-((S)-4-methyl-1-oxo-1-(((S)-3-oxo-1-((S)-2-oxopyrrolidin-3-yl)-4-(2,3,5,6-tetrafluorophenoxy)butan-2-yl)amino)pentan-2-yl)oxalamide] the value was < 0.05 µM.
